Assay: mn = molality of the nth substance listed, in mol/kg
Settings: 298.15 K, 101 kPa, Liquid, Vibrating tube method

CCCC(N)=O [butanamide] + O
Settings	mass density [kg/m3]
m1 = 0.2015	997.019
m1 = 0.3122	997.028
m1 = 0.4106	997.052
m1 = 0.5053	997.083
m1 = 0.628	997.117
m1 = 0.7131	997.16
m1 = 0.827	997.21
m1 = 0.9204	997.269

— the NIST ThermoML archive (doi:10.1016/j.tca.2007.07.002)
